One data set relates to skin. Particulars: in vivo; cited from earlier work.
In data set [1] the test system is human colon carcinomas (HT-29 P9). The class given is in vivo, hairless mouse. How it is done: Phototoxic effect of the compound [mu-16,16'-(7,12-diethyl-3,8,13,17-tetramethylporphyrin-2,18-diyl]bis[3,6,9-tris(carboxymethyl)-11,14-dioxo-3,6,9,12,13-pentaazahexadecanoato]}(8-)]}digadolinato(2-), disodium (Example 1c of WO 94/07894) on a tumor of a hairless mouse
Intracutaneous human colon carcinomas (HT-29 P9) are implanted in the sides of 15 hairless mice that weigh 24-30 g. The tumors are allowed to grow to a size of 5-10 mm. […] On days 1 and 3, i.v. substance is administered to the anesthetized animals. In this case, the animals of group 1 receive 2×130 μl of 0.9% NaCl solution, and they remain in the dark for the entire time. The animals of the second group receive 2×130 μl of a 100 mmol solution of the title compound, which corresponds to a dose of 2×0.5 mmol/kg of body weight. In each case, 30 minutes after administration, the animals are exposed to the light of a xenon lamp (8.5 k Lux, 1 cm glass as a UV filter) for 45 minutes. They spend the rest of the test time in the dark. 2×130 μl of a 100 mmol solution of test substance is also injected into the animals of the third group. The animals remain in the dark, however, for the duration of the test. On the 6th day after the substance is administered, the animals are sacrificed in ether. The tumor is measured, examined macroscopically, removed and tested histologically. […] In group 1, the range is 6.5×7.7 mm^2 up to 8.6×12.0 mm^2. In the very large tumors, which are fed by numerous blood vessels, small lesions of the skin (possibly bite marks) and in some cases deeper bleeding are evident in the center. […] With the animals of group 2, the following observations are made: […]

The subject of data set [2] is human colon carcinoma (HT-29 P9). Description: Phototoxicity on a tumor cell culture, xenon lamp irradiation, live-dead coloration (Example 11). Particulars: irradiated with xenon lamp 8.5 k Lux, UV filter, three days; PE = porphyrin unit; 4320 min; read-out: ED50 (concentration at which about half of the cells are no longer vital). The class given is cell-based. As for the experimental part: Determination of the phototoxicity (ED50) of compound Ic of WO 94/07894 (I) and of the title compound of Example 1d) (II) on a tumor cell culture.
In 25 ml culture flasks, a cell culture of human colon carcinoma (HT-29 P9) is reproduced for 3 days at 37° C. The cultures are divided into two groups and mixed with solutions of test substances (50 mmol of porphyrin unit (PE)/l, diluted with fetal calf serum) in increasing amounts (0; 1.5; 5; 8.5; 12; 15.5; 19 μmol of PE/l). The samples are irradiated for three days with a xenon lamp (8.5 k Lux, UV filter). The first group daily received 2 irradiations of 30 minutes each at an interval of 4 hours. For the rest of the time, it remains in the dark in an incubator. The second group is not exposed to light and remains in the dark in the incubator for the entire time. On the fourth day, the cell growth is determined by live-dead coloration and counting with the counting chamber.
The table indicates the concentration at which about half of the cells are no longer vital. (I: Example 1c of DE 4232925; II: Title compound of Example 1d)

pIC50: −log10 of the molar value. Where two headings read alike, the source gives them in different places.

For `Oc1cccc(-c2c3nc(c(-c4cccc(O)c4)c4ccc([nH]4)c(-c4cccc(O)c4)c4nc(c(-c5cccc(O)c5)c5ccc2[nH]5)CC4)C=C3)c1` [m-THPC], the “Duration of skin sensitization” value with skin is reported as ~ 3 weeks.

Take “[mu-16,16'-(7,12-diethyl-3,8,13,17-tetramethylporphyrin-2,18-diyl]bis[3,6,9-tris(carboxymethyl)-11,14-dioxo-3,6,9,12,13-pentaazahexadecanoato]}(8-)]}digadolinato(2-), disodium [Example 1c of WO 94/07894]”: the “Histology: diameter of multifocal central necrosis” value in data set [1] (group 2, 2×0.5 mmol/kg i.v. + light, three non-eroded tumors) is recorded as 1.5-2.1 mm. Besides, in data set [1] (group 2, substance + light), the “Phototoxic action (overall)” value is listed as “strong phototoxic action”; the “Tumor growth into the muscle layer” value is given as “The tumor did not grow into the muscle layer”; the “Tumor size / tumor growth at end of test” value was “Comparative measurement of tumor size was no longer possible in view of the extent of the destruction of the tumors. Tumor growth took place, if at all, only in the periphery and in deep tumor layers”. In data set [1] (group 3, 2×130 μl of 100 mmol solution, kept in the dark), the “Histology: diameter of multifocal central necrosis” value is on record as 0.1-0.8 mm. Moreover, the Tumor growth result in data set [1] (group 3, substance, kept in the dark) is listed as “The tumors continue to fluorish”. In data set [2], the pIC50 was 5.19.

As to “{Mu-[(16,16'-[zinc(II)-7,12-diethyl-3,8,13,17-tetramethylporphyrin-2,18-diyl]-bis[3,6,9-tris(carboxymethyl)-11,14-dioxo-3,6,9,12,13-pentaazahexadecanoato]}(8-)]}-digadolinato(2-), disodium [Example 1d]”, the pIC50 in data set [2] was 5.29.

Values taken from US6136841A, “3-, 8-substituted deuteroporphyrin derivatives, pharmaceutical agents that contain the latter, process for their production and their use in photodynamic therapy and MRI diagnosis” (Schering Aktiengesellschaft, priority 1998, dated 2000).
